Where two headings read alike, the source gives them in different places. Marks after values point to notes of the source that are not given here.
Key:
[1] = Hygroscopicity of co-crystals; format: physicochemical
[2] = Pharmacokinetic study after oral administration; format: in vivo, cynomolgus monkeys
Text: Studies were undertaken to compare the pharmacokinetics (PK) of the glutaric acid co-crystal to the PK of the tosylate salt of the Formula I compound. A 3% solution of Blanose 7LF PM without preservatives was used to formulate the glutaric acid co-crystal and tosylate salt. Results from a pharmacokinetic study in cynomolgus monkeys indicate that the plasma concentration of the glutaric acid co-crystal was greater than the corresponding tosylate salt following oral administration of each compound.
In this study, each compound was administered orally at a dose of 10 mg/kg to cynomolgus monkeys. Following administration, blood was obtained from each test subject at 0 min, 60 min, 120 min and 180 minutes. After separating the plasma from whole blood an aliquot to each plasma sample was denature by the addition of 70% ethanol. The denatured protein was pelleted by centrifugation and the supernatant was collected and dried using a stream of dry nitrogen gas. The pellet thus obtained was re-constituted in water containing 0.1% formic acid and the re-constituted mixture was analyzed by UPLC using a HSS-T3 (high strength silica) column or an YMC TriartC-18 column. Gradient elution using a mixture of water containing 0.1% HCOOH (mobile phase-A) and acetonitrile containing 0.1% HCOOH (mobile phase-B) was employed for analysis of the pharmacokinetic (PK) samples.

HBV = test: microbe, parasite or virus in culture
Procedure: Direct inhibition of viral replication was evaluated by monitoring the levels of secreted HBV DNA and the levels of HBV surface antigen (HBsAg) in cultures containing HBV infected HepaRG cells.
After three days incubation, the combined medium was replaced with differentiation medium and the cells were maintained in the differentiation medium for an additional 2 to 4 weeks. The differentiation medium was renewed every 2 to 3 days throughout the incubation period. Differentiated HepaRG cells (HepaRGd) display hepatocyte-like cell islands surrounded by monolayer of biliary-like cells. Prior to HBV infection and compound treatment, HepaRGd cells were seeded into collagen I coated 96-well plates (Gibco, Cat# A11428-03) at 50,000 to 60,000 cells per well. Cells were allowed to recover their differentiated phenotype in 96-well plates for at least 1 week after plating prior to HBV infection.
HBV inoculum was collected from HepG2.2.15 cultured cells, a cell line that supports HBV (genotype D, strain ayw) replication and virion secretion as disclosed in Sells M A., et al., PNAS, 84(4): 1005-1009. HepG2.2.15 cells were maintained in DMEM+GlutaMAX-I (Invitrogen) containing 1× Pen/Strep (Invitrogen), 10% FBS, and 0.25 mg/ml G-418 (Invitrogen) using hyperflasks (Corning) pre-coated with collagen I (BD Biosciences). Upon reaching confluency, HepG2.2.15 culture media was replaced with DMEM+GlutaMAX-I containing 1× Pen-Strep, 2.5% FBS, and 1% DMSO for 3 days and then replaced with DMEM+GlutaMAX-I containing 1× Pen-Strep and 1% DMSO. The 1% DMSO containing media was collected every 3 to 4 days over a two week period and HBV infectious virions and subviral particles were pelleted by ultracentrifugation through a 20% sucrose cushion in a Ti 45 Beckman rotor at 45,000 rpm for 3 hours at 4° C. The pellets were resuspended in WEM at a concentration of 10^8-10^9 genome equivalents (GE) per ml, determined by real time PCR as described below using a genotype D HBV containing plasmid DNA as an internal standard. To evaluate the infectivity of the inoculum, HepaRGd cells in 96-well plates were infected in differentiation medium containing 50 to 200 GE/cell and 4% PEG 8000 (PolyEthylene Glycol 8000, Sigma, Cat# P5413-500G) for 16 hr at 37° C. At the end of the infection, HBV inoculum was removed and cells were washed 3 times with differentiation medium. Differentiation medium was replenished every 2 to 3 days and HBV replication was monitored by measuring secreted HBV DNA, hepatitis B surface (HBsAg) and/or e (HBeAg) antigens.
HBsAg was detected from 50 μL of HBV infected HepaRG supernatants using the HBsAg chemiluminescence immunoassay (CLIA) kit following instructions as recommended by the manufacturer (Autobio Diagnostics Co., Zhengzhou, China). HBV DNA was extracted from 50 μL of HBV infected HepaRGd supernatants using the MagNA Pure 96 DNA and Viral NA Small Volume Kit (Roche, Cat#05 467 497 001). […] All PCR reactions were performed using the ViiA7 Real Time PCR system (Life Technologies).
Both direct and indirect inhibitory activity of HBV replication was measured. […] Aliquots of these reagents were added to independent wells of a 96-well culture plate containing HBV infected HepaRGd cells on day 4 post infection. The final concentration of DMSO in each well was 2%. The HepaRGd cells used in the inhibition study were maintained in differentiation media containing 2% DMSO.

[3] = Solubility and solution stability in buffers by UPLC; format: physicochemical; conditions: thermodynamic from solid, read-out: solubility: free-base form of the Formula I compound present per milliliter of buffer solution
Text: Studies have shown that the co-crystals were soluble in water and buffered solvents.
Unlike the tosylate salt, no genotoxic by-products are formed in solutions of the inventive co-crystals.

[4] = Solid state stability by UPLC; format: physicochemical
Procedure: Solid state stability studies were performed by storing a test sample of the co-crystal at different temperatures and under conditions of different relative humidity for a period of one to three months. Stability was judged by Ultra performance liquid chromatography (UPLC) analysis of the test co-crystals. Percent degradation of API in a test sample of the co-crystal was calculated as follows: Co-crystals in accordance with the invention are fairly stable across the temperature range used in the study. […] Without ascribing to a particular theory, crystallinity may contribute to the stability of inventive co-crystals. Table 7 illustrates data from a stability of a Formula I glutaric acid co-crystal in accordance with the invention across a range of temperatures and in the presence of 75% relative humidity at 40° C. […] Further supporting the hypothesis that crystallinity contributes to increased stability was provided by comparing the amorphous form of the free base of a Formula I compound to the crystalline form of a Formula I compound as illustrated in Table 8.

[5] = BCS classification of co-crystals (aqueous solubility); format: physicochemical; conditions: for BCS Class (Stahl et al): Table 10
[6] = Excipient compatibility assay (COMPASS), ternary mixtures; format: physicochemical; conditions: glutaric acid co-crystal ternary mixtures
Procedure: Compatibility of the inventive co-crystals with pharmaceutically acceptable excipients was determined by the classic compatibility assay (COMPASS). According to this method, excipient compatibility was investigated by physically mixing the inventive glutaric acid co-crystals with a single pharmaceutical excipient so as to form a binary mixture or by physically mixing the inventive glutaric acid co-crystals with mixtures containing two or more excipients (ternary mixture). Each binary mixture contained 5% by weight of the Formula I compound, whereas the weight percent of the Formula I compound in a ternary mixture was 50%. The test mixtures were stored at 50° C. for 4 weeks or at a temperature of 40° C. and a relative humidity of 75% for 4 weeks.
The inventive co-crystals are compatible with fillers and/or excipients commonly used in the manufacture of pharmaceutical compositions. Table 4 illustrates the results of a compatibility study using ternary mixtures of the inventive glutaric acid co-crystal of the Formula I compound. Table 5 illustrates the results for a similar study using ternary mixtures of the tosylate salt of the Formula I compound.
Ternary mixtures comprising the inventive glutaric acid co-crystal or the tosylate salt of a Formula I compound contained the following excipients in proportions illustrated in Table 6 below.

[7] = system: HBV infected HepaRGd cells; test: Cell viability by CellTiter-Glo, direct treatment; format: cell-based
[8] = solid, 1 month, 40° C./75% r.h.
[9] = solid, 2 months, 40° C./75% r.h.
[10] = read-out: EC50 against HBV DNA secretion, HBV infected HepaRG cell assay
[11] = 4 weeks/40° C./ambient conditions (closed container)

Nc1ccccc1C(=O)O [2-aminobenzoic acid]
Hygroscopicity ([1]; grade in words): slightly
Hygroscopicity ([1]; mass change ±): (±1.8%-m/m)

CC(=O)O[C@@H]1C[C@@H](CO)O[C@H]1n1c(=O)sc2cnc(N)nc21 [glutaric acid co-crystal, 5-amino-3-(2′-O-acetyl-3′-deoxy-β-D-ribofuranosyl)-3H-thiazolo[4,5]pyrimidine-2-one]
plasma concentration of the de-acetylated form of the Formula I compound compared to tosylate salt ([2]; cynomolgus monkeys, oral, 10 mg/kg): about two-fold
direct inhibition of HBV viral replication (HBV; cultured HepaRG cells): did not inhibit viral replication
solubility ([3]; aqueous buffer, pH 4.0 buffer): ~8 mg/mL
solubility ([3]; buffer solution, aqueous buffer, pH 7.0 buffered solution): ~22 mg/mL
solubility ([3]; buffer solution, simulated gastric fluid, pH 1.0 buffered solution): > 60 mg/mL
% Area Formula I ([4]; solid, 1 month, 2-8° C.): 99.02 % Area
% degradation ([4]; solid, 1 month, 2-8° C.): −0.08%
% Area Formula I ([4]; solid, 1 month, 40° C.): 99.05 % Area
% degradation ([4]; solid, 1 month, 40° C.): −0.11%
% Area Formula I [4, 8]: 99.14 % Area
% degradation [4, 8]: −0.2%
% Area Formula I ([4]; solid, 1 month, 60° C.): 99.01 % Area
% degradation ([4]; solid, 1 month, 60° C.): −0.07%
% Area Formula I ([4]; solid, 1 month, RT): 98.9 % Area
% degradation ([4]; solid, 1 month, RT): 0.04%
% Area Formula I ([4]; solid, 2 months, 2-8° C., reference for 2 month stability): 99.32** % Area
% Area Formula I ([4]; solid, 2 months, 40° C.): 99.35 % Area
% degradation ([4]; solid, 2 months, 40° C.): −0.04%
% Area Formula I [4, 9]: 99.34 % Area
% degradation [4, 9]: −0.03%
% Area Formula I ([4]; solid, 2 months, 60° C.): 99.56 % Area
% degradation ([4]; solid, 2 months, 60° C.): −0.25%
% Area Formula I ([4]; solid, 2 months, RT): 99.22 % Area
% degradation ([4]; solid, 2 months, RT): −0.10%
T0 % Area Formula I ([4]; solid, T0, reference for 1 month stability): 98.94* % Area

TNF-α
EC50 (HBV; [10]): 0.085 ± 0.046 nM
EC50 (HBV; read-out: EC50 against HBsAg secretion, HBV infected HepaRG cell assay, unit inferred): 0.32 nM

5-amino-3-(2′-O-acetyl-3′-deoxy-β-D-ribofuranosyl)-3H-thiazolo[4,5]pyrimidine-2-one [glutaric acid co-crystal]
Hygroscopicity ([1]; grade in words): slightly
Hygroscopicity ([1]; mass change ±): (±0.3%-m/m)
BCS Class ([5]; Table 1): 1
BCS Class (Stahl et al) [5]: 1

IL-6: interleukin 6, cytokine
EC50 (HBV; [10]): 0.027 ± 0.0073 nM
EC50 (HBV; read-out: EC50 against secretion of HBsAg, HBV infected HepaRG cell assay): 0.26 ± 0.02 nM

CC(=O)O[C@@H]1C[C@@H](CO)O[C@H]1n1c(=O)sc2cnc(N)nc21 [free base Formula I-amorphous, 5-amino-2-oxothiazolo[4,5-d]pyrimidin-3(2H)-yl-5-hydroxymethyl tetrahydrofuran-3-yl acetate]
% Area Formula I ([4]; 4 weeks/40° C./75% r.h.): 86.34 % Area
% degradation ([4]; 4 weeks/40° C./75% r.h.): 13.57%
stability grade ([4]; 4 weeks/40° C./75% r.h.): very
% Area Formula I [4, 11]: 98.89 % Area
% degradation [4, 11]: 1.011%
stability grade [4, 11]: (moderately
T0 % Area Formula I ([4]; free base forms, T0): 99.90 % Area

CC(=O)O[C@@H]1C[C@@H](CO)O[C@H]1n1c(=O)sc2cnc(N)nc21 [free base Formula I-crystalline, 5-amino-2-oxothiazolo[4,5-d]pyrimidin-3(2H)-yl-5-hydroxymethyl tetrahydrofuran-3-yl acetate]
% Area Formula I ([6]; 4 weeks at 40° C./75% RH): 99.740 % area
% degradation ([6]; 4 weeks at 40° C./75% RH): −0.030%
Stability ([6]; 4 weeks at 40° C./75% RH): Fairly
% Area Formula I ([6]; 4 weeks at 50° C.): 99.670 % area
% degradation ([6]; 4 weeks at 50° C.): 0.040%
Stability ([6]; 4 weeks at 50° C.): Fairly
% Area Formula I ([6]; Reference 4 weeks at 2-8° C.): 99.710 % area
% Area Formula I ([4]; 4 weeks/40° C./75% r.h.): 99.56 % Area
% degradation ([4]; 4 weeks/40° C./75% r.h.): 0.15%
stability grade ([4]; 4 weeks/40° C./75% r.h.): stable
% Area Formula I [4, 11]: 99.52 % Area
% degradation [4, 11]: 0.19%
stability grade [4, 11]: (stable)
T0 % Area Formula I ([4]; free base forms, T0): 99.71 % Area

Fumaric acid
Hygroscopicity ([1]; grade in words): slightly
Hygroscopicity ([1]; mass change ±): (±0.6%-m/m)

IP-10: IFNγ-induced protein 10, chemokine
CC50 [7]: > 115 nM
EC50 (HBV; read-out: EC50, HBV replication inhibitory effect, highest concentration tested): > 115 nM

O=C(O)CCC(=O)C(=O)O [α-ketoglutaric acid]
Hygroscopicity ([1]; grade in words): slightly
Hygroscopicity ([1]; mass change ±): (±0.8%-m/m)
BCS Class (Stahl et al) [5]: 1

CC(=O)OC1CC(CO)OC1n1c(=O)sc2cnc(N)nc21.Cc1ccc(S(=O)(=O)O)cc1 (stereo not shown) [Tosylate Salt, 5-amino-2-oxothiazolo[4,5-d]pyrimidin-3(2H)-yl-5-hydroxymethyl tetrahydrofuran-3-yl acetate]
levels of the de-acetylated form of the Formula I compound and biologically active species in plasma ([2]; monkeys, oral dose of 10 mg/kg, compared with glutaric acid co-crystal): lower levels
